Literature values, collected in US11058138B2, “Composition for calcium supplementation” (ABIOGEN PHARMA S.P.A., priority 2017, dated 2021).

Conditions: versus calcium carbonate

## O=C([O-])CC(O)(CC(=O)[O-])C(=O)[O-].O=C([O-])CC(O)(CC(=O)[O-])C(=O)[O-].[Ca+2].[Ca+2].[Ca+2] [calcium citrate]
  Bioavailability higher than that of calcium carbonate: 20-30%
